Laboratory results taken from publication PMC8421526, “Cell-Penetrating Peptides Predicted From CASC3, AKIP1, and AHRR Proteins” (Frontiers in Pharmacology, 2021).
Entries after “also recorded” stand apart in the source; their conditions may differ. Where two headings read alike, the source gives them in different places.

Assays:
[1] = test system: U87, PC3, and HeLa cells; assay: Internalization of FAM-labelled peptides, fluorescence from cell lysate; assay type: cell-based, human; conditions: FAM-labelled peptide 10 µM, 2 h, serum free media, lysis 0.1% Triton X100; cannot distinguish internalized from membrane-attached peptide; Figure 1A
Protocol: U87 (human glioblastoma like cells) and HeLa (human cervical cancer) were maintained at 37°C and 5% CO2 in Dulbecco’s Modified Eagle’s Medium (DMEM) (Sigma, Germany). PC3 (human prostate cancer) and CHO cells were maintained in Ham´S F12 media and incubated at 37°C and 5% CO2. Cell media were supplemented with 0.1 mM non-essential amino acids, 1.0 mM sodium pyruvate, 10% fetal bovine serum (FBS) (Sigma, Germany), 100°U ml^−1 penicillin, and […] streptomycin (Invitrogen, Sweden). U87 cell dishes were treated with 0.1% gelatin solution prior to addition of cells and media. For assessing the internalization of the peptides from the cell lysate, 50,000 cells were seeded on a 24-well plate 1 day prior to the experiment. On the experiment day, cell media was changed to 450 µl of fresh serum free media followed by the addition of 50 µl of fluorescently labelled peptide solution. The peptide’s final concentration on the cells was 10 µM. The cells were incubated with the peptides for 2 h, following washes with PBS buffer and cell lysis with 100 µl of 0.1% Triton X100. The cell lysate was transferred to black 96-well plate and the fluorescence signal from the fluorescently labelled peptide was measured.

[2] = test system: U87, PC3, and HeLa cells; assay: Percentage of fluorescent cells after peptide treatment, flow cytometry; assay type: cell-based, human; conditions: FAM-labelled peptide 10 µM, 2 h, serum free media, trypan blue quenching, Figure 1B; for Percentage of the fluorescent positive cells: threshold set with untreated cells
Protocol: U87 (human glioblastoma like cells) and HeLa (human cervical cancer) were maintained at 37°C and 5% CO2 in Dulbecco’s Modified Eagle’s Medium (DMEM) (Sigma, Germany). PC3 (human prostate cancer) and CHO cells were maintained in Ham´S F12 media and incubated at 37°C and 5% CO2. Cell media were supplemented with 0.1 mM non-essential amino acids, 1.0 mM sodium pyruvate, 10% fetal bovine serum (FBS) (Sigma, Germany), 100°U ml^−1 penicillin, and […] streptomycin (Invitrogen, Sweden). U87 cell dishes were treated with 0.1% gelatin solution prior to addition of cells and media. The percentage of the fluorescent cells after peptide treatment was assessed using flow cytometry. For flow cytometry, 10,000 cells were seeded on a 96-well plate 1 day prior to the experiment. On the experiment day, the cell media was changed to 90 µl of fresh serum free media followed by the addition of 10 µl of the fluorescently labelled peptide solution. The peptide’s final concentration on the cells was 10 µM. The cells were incubated with the peptides for 2 h, following washes with PBS buffer. 0.25% Trypsin-EDTA was added to detach the cells from the plate and 200 µl of PBS mixed with 1% FBS was added. Shortly before the analysis, 50 µl of 0.4% trypan blue was added to quench the fluorescence outside the cells. The fluorescence detected from the untreated cells was used to set the signal threshold. The results are shown as the percentage of the fluorescent positive cells.

[3] = test system: U87 cells; conditions: for 2-Way ANOVA, MTS assay, treatment group compared to untreated: Table S4 C; for Proliferation in MTS assay compared to the CPP Tat treated group: same concentration of Tat, statistically significant
Protocol: (§1) The cell proliferation was analyzed with the CellTiter 96® Aqueous Non-Radioactive Cell Proliferation Assay (MTS) (Promega Biotech AB, Sweden) according to the manufacturer’s instructions. For this, 10,000 U87 or CHO cells were seeded 1 day prior to the experiment on transparent 96-well plates. On the experiment day, media was replaced with 90 μl of fresh serum free media. Peptides in the concentration range from 0 to 32 µM were added to the cells. The cells were incubated with the peptides for 20 h or 46 h, following the addition of the reagent and further incubation to reach 24 h or 48 h timepoints. The absorbance of the formazan product was measured at 490 nm with Tecan Sunrise microplate absorbance reader (Tecan Group Ltd., Switzerland) and the percentage of viable cells was calculated using the GraphPad Prism software 5.0 (GraphPad Software, CA, United States).

[4] = test system: HeLa cells; assay: Internalization of fluorescently labelled peptide, confocal microscopy of live cells; assay type: cell-based, human; conditions: 4 h; for Fluorescence signal from the peptide in confocal images: fluorescently labelled peptide 10 µM, Hoechst counterstain, 20x; for Entry into cells in confocal images: fluorescently labelled peptide 20 µM, Supplementary Figure S2
Protocol: 48 h prior to the addition of […], 20,000 HeLa cells were seeded on 8-well Nunc™ Lab-Tek™ (Thermo Scientific™, United States) chamber plates. Before the addition of the peptide solutions media was changed to 225 µl of fresh media. […] After 4 h incubation, the cells were washed with PBS and counterstained with Hoechst 33342. Confocal images were acquired from live cells with Zeiss LSM710 (Carl Zeiss AG, Germany). For detecting the fluorescent label from the peptide, 488 nm laser with […] was used, and for detecting nuclei 405 nm laser with 416–503 filter was used. The images were taken with 20x magnification.

[5] = test system: U87 cells; assay: Total DNA from cell lysate (PicoGreen dsDNA assay); assay type: cell-based, human; conditions: 5 µM peptide, 48 h, normalized to untreated cells, average of three wells
Protocol: Total DNA was measured from U87 cells 48 h after the addition of the peptide solutions. After the incubation, the cells were washed with PBS and lysed as described above. From the cell lysate, DNA was quantified with Quant-iT™ PicoGreen™ dsDNA Assay Kit. The results are shown as the average of measurements from three wells and normalized to untreated cells.

[6] = test system: CHO cells; conditions: serum free media, 8 and 32 µM, average of three independent wells
Protocol: as §1

[7] = Figure 3 24 h, peptide added 0.5 µM
[8] = Figure 3 24 h, peptide added 2 µM
[9] = Figure 3 24 h, peptide added 8 µM
[10] = Figure 3 24 h, peptide added 32 µM
[11] = Figure 3 48 h, peptide added 0.5 µM
[12] = Figure 3 48 h, peptide added 2 µM
[13] = Figure 3 48 h, peptide added 8 µM
[14] = Figure 3 48 h, peptide added 32 µM

| Sequence | Fluorescence signal from the cell lysate (internalization) [1] | Fluorescent signal in flow cytometry (detectable or not) [2] | 2-Way ANOVA, MTS assay, treatment group compared to untreated [3, 7] | 2-Way ANOVA, MTS assay, treatment group compared to untreated [3, 8] | 2-Way ANOVA, MTS assay, treatment group compared to untreated [3, 9] | 2-Way ANOVA, MTS assay, treatment group compared to untreated [3, 10] | Fluorescence signal from the peptide in confocal images [4] | Percentage of the fluorescent positive cells [2] | 2-Way ANOVA, MTS assay, treatment group compared to untreated [3, 11] | 2-Way ANOVA, MTS assay, treatment group compared to untreated [3, 12] | 2-Way ANOVA, MTS assay, treatment group compared to untreated [3, 13] | 2-Way ANOVA, MTS assay, treatment group compared to untreated [3, 14] | further results |
| --- | --- | --- | --- | --- | --- | --- | --- | --- | --- | --- | --- | --- | --- |
| RKRRESASSSSSVKKAKKP [DMAP1_459-467, predicted CPP from DNA methyltransferase 1-associated protein 1, C-terminally amidated] | above control | – | – | – | – | – | – | – | – | – | – | – | – |
| VAAKKRKKDML [FBXO32_59-69, predicted CPP from F-box only protein 32, C-terminally amidated] | – | all the peptides except the CCNL2, ING4, and FBXO32 derived peptides had a detectable signal | – | – | – | – | – | – | – | – | – | – | – |
| TQKEKKAARARSK [ING4_134-145] | – | all the peptides except the CCNL2, ING4, and FBXO32 derived peptides had a detectable signal | – | – | – | – | – | – | – | – | – | – | – |
| NTKRRLEGAKKA [CCNL2_354-365, predicted CPP from Cyclin L2, C-terminally amidated] | – | all the peptides except the CCNL2, ING4, and FBXO32 derived peptides had a detectable signal | – | – | – | – | – | – | – | – | – | – | – |
| GECTYAGRKRRRPLQK [AHRR8-24, predicted CPP from Aryl hydrocarbon receptor repressor, C-terminally amidated] | highest fluorescence intensities | – | ns (P > 0.05 – ns) | * (p < 0.05 - *) | * (p < 0.05 - *) | ** (p < 0.01 - **) | fluorescence signal from the peptides can be seen in the cells | more than 10% | – | – | – | – | Proliferation in MTS assay compared to the CPP Tat treated group ([3]; U87 cells, 0.5, 2, and 8 µM, 48 h): decrease in the proliferation; Viability in MTS assay ([3]; U87 cells, serum free media, after 48 h): decreased viability |
| VLERAKRRAV [AKIP1_27-37] | highest fluorescence intensities | – | ns (P > 0.05 – ns) | * (p < 0.05 - *) | * (p < 0.05 - *) | * (p < 0.05 - *) | fluorescence signal from the peptides can be seen in the cells | more than 10% | ns (P > 0.05 – ns) | * (p < 0.05 - *) | * (p < 0.05 - *) | ** (p < 0.01 - **) | Amount of total DNA [5]: decreased amount of total DNA |
| GRKKRRQRRRPPQ [Tat48-60, known CPP from HIV TAT used as control, C-terminally amidated, reference compound] | – | – | ns (P > 0.05 – ns) | ns (P > 0.05 – ns) | ns (P > 0.05 – ns) | * (p < 0.05 - *) | fluorescence signal from the peptides can be seen in the cells | – | ns (P > 0.05 – ns) | ns (P > 0.05 – ns) | * (p < 0.05 - *) | *** (p < 0.001 - ***) | Toxicity in MTS assay ([3]; U87 cells, serum free media, 0-32 µM, after 24 or 48 h): did not show a considerable amount of toxicity; Entry into cells in confocal images [4]: able to enter into almost all the cells |
| PDDIKPRRIRKPRY [CASC3_251-264, predicted CPP from CASC3, C-terminally amidated] | highest fluorescence intensities | – | ** (p < 0.01 - **) | ** (p < 0.01 - **) | *** (p < 0.001 - ***) | *** (p < 0.001 - ***) | fluorescence signal from the peptides can be seen in the cells; also recorded: strongest and well dispersed signal | more than 10% | * (p < 0.05 - *) | * (p < 0.05 - *) | * (p < 0.05 - *) | *** (p < 0.001 - ***) | Cell proliferation in MTS assay [6]: proliferation decreased; Proliferation in MTS assay compared to the CPP Tat treated group ([3]; U87 cells, 0.5 µM, 24 h): decrease in the proliferation; Cell proliferation in MTS assay ([3]; U87 cells, serum free media, 8 and 32 µM): proliferation decreased; Entry into cells in confocal images [4]: able to enter into almost all the cells |
